Experimental data published in patent US20260217701A1, “SELECTIVE BET INHIBITORS AND USES THEREOF” (Tay Therapeutics Limited, priority 2022, published 2026).
Marks after values point to notes of the source that are not given here.

What was measured:
[1] = target: T1, BRD4 BD2 (Homo sapiens, UniProt O60885); test: NanoBRET bromodomain assay, NanoLuc-BRD4-BD2 in HEK293 cells; type: binding; conditions: for Fold Selectivity BRD4 BD1/BD2: IC50 BD1/IC50 BD2, qualitative if an IC50 is at the upper limit
T1 construct: HEK293 cells were transfected using NanoLuc-BRD4-BD1 or NanoLuc-BRD4-BD2 fusion vectors
Protocol: (§1) Plates were then incubated at 37° C.+5% CO2 incubator for 2 hours.
(§2) Fold Selectivity Calculated (IC50 BD1/IC50 BD2).

[2] = target: T2, BRD4 BD1 (Homo sapiens, UniProt O60885); test: NanoBRET bromodomain assay, NanoLuc-BRD4-BD1 in HEK293 cells; type: binding
T2 construct: HEK293 cells were transfected using NanoLuc-BRD4-BD1 or NanoLuc-BRD4-BD2 fusion vectors
Protocol: Exemplary compounds of the disclosure are active against BRD4 BD2 and selective over BRD4 BD1. BRD4 is a representative example of the BET family, as the binding sites of all BET family members are structurally similar. […] IC50s and fold selectivity's are determined as described below and are represented in Table 1.
as §1, §2

[3] = test system: experimental autoimmune encephalomyelitis; test: Experimental autoimmune encephalomyelitis (EAE) model: EAE scores, onset, incidence; type: in vivo, C57BI/6 mice; conditions: FTY720 (Group 5)
Protocol: (§3) Experimental Method H: EAE in animals treated with a BET inhibitor and vehicle. Animals were assigned to the groups outlined in Table 38.
(§4) Compound A may be formulated as illustrated in Experimental Method A (see Table 2E.). A 40 mg/mL stock solution of Compound A in DMSO was prepared and aliquots stored at −20° C. On each day of preparation an e.g., 0.75 mL aliquot of thawed stock was diluted with an equal volume of DMSO. The remaining vehicle components were added to provide the highest dose and then diluted with vehicle to provide lower doses. A 30 mg/mL stock solution of FTY720 in ethanol was prepared and stored at −20° C. Daily, the stock solution was diluted with room temperature water to a final dosing concentration of 0.6 mg/mL. Formulated Compound A, FTY720 and vehicle were each at room temperature for dosing.
(§5) Female C57BI/6 mice (9 weeks old) were acclimated for seven days prior to study initiation. On Day-1, animals were assigned to groups in a balanced manner to achieve similar average weights across the different groups. Chronic EAE was induced in female C57BI/6 mice following immunization with an emulsion of MOG35-55/CFA on Day 0, followed by an injection of pertussis toxin two hours after the initial immunization. On Day 1, a second injection of pertussis toxin was administered 24 hours after the initial immunization. Mice were injected subcutaneously at two sites on the back with the MOG35-55/CFA emulsion (Hooke Kit™ MOG35-55/CFA Emulsion PTX). The first injection site was located approximately 1 cm caudal of the neckline (upper back), and the second injection site was approximately 2 cm cranial of the base of the tail (lower back). The injection volume was 0.1 mL for each injection. The pertussis toxin was administered at the described times through intraperitoneal injection at a concentration of 85 ng/dose for both injections.
(§6) Body weight was measured three times a week (Monday, Wednesday, and Friday) starting on Day-1. Animals were scored daily for EAE starting on Day 7. In-between scores were assigned when the clinical signs fell between two below defined scores.

[4] = EAE study: body weight; type: in vivo, C57BI/6 mice; conditions: for Mean Body Weight / Mean Body Weight (% of Day −1): FTY720 (Group 5)
Protocol: as §3, §4, §5, §6

Cn1cc(-c2ccccc2)c(-c2cn(C)c(=O)c3[nH]c(-c4cnn(C(F)(F)F)c4)c(F)c23)cc1=O [Compound D, 3-fluoro-6-methyl-4-(1-methyl-2-oxo-5-phenyl-1,2-dihydropyridin-4-yl)-2-(1-(trifluoromethyl)-1H-pyrazol-4-yl)-1,6-dihydro-7H-pyrrolo[2,3-c]pyridin-7-one]
Selectivity (BD1/BD2) ([1]; nanoBRET assay, given as symbol only, higher number denotes higher selectivity): >>>>
BD2 ([1]; nanoBRET assay, given as symbol only, lower number denotes higher potency): <

Cn1cc(-c2ccccc2)c(-c2cn(C)c(=O)c3[nH]c(-c4cccn(C)c4=O)cc23)cc1=O [Example 1, 6-methyl-2-(1-methyl-2-oxo-1,2-dihydropyridin-3-yl)-4-(1-methyl-2-oxo-5-phenyl-1,2-dihydropyridin-4-yl)-1,6-dihydro-7H-pyrrolo[2,3-c]pyridin-7-one]
IC50 [2]: > 1000 nM
IC50 [1]: 10 to 50 nM
Fold Selectivity BRD4 BD1/BD2 [1]: xxx (Fold >200 and ≤1000)

Cn1cc(-c2cccc(CS(C)(=O)=O)c2)c(-c2cn(C)c(=O)c3[nH]c(-c4cnn(C(F)(F)F)c4)cc23)cc1=O [Example 2, 6-methyl-4-(1-methyl-5-(3-((methylsulfonyl)methyl)phenyl)-2-oxo-1,2-dihydropyridin-4-yl)-2-(1-(trifluoromethyl)-1H-pyrazol-4-yl)-1,6-dihydro-7H-pyrrolo[2,3-c]pyridin-7-one]
IC50 [2]: > 1000 nM
IC50 [1]: 50 to 200 nM
Fold Selectivity BRD4 BD1/BD2 [1]: xx (Fold >50 and ≤200)

CN(C)CCOc1cccc(-c2cn(C)c(=O)cc2-c2cn(C)c(=O)c3[nH]c(-c4cnn(C(F)(F)F)c4)cc23)c1 [Example 3, 4-(5-(3-(2-(dimethylamino)ethoxy)phenyl)-1-methyl-2-oxo-1,2-dihydropyridin-4-yl)-6-methyl-2-(1-(trifluoromethyl)-1H-pyrazol-4-yl)-1,6-dihydro-7H-pyrrolo[2,3-c]pyridin-7-one]
IC50 [2]: > 1000 nM
IC50 [1]: 50 to 200 nM
Fold Selectivity BRD4 BD1/BD2 [1]: xx (Fold >50 and ≤200)

Cn1cc(-c2cccc(CN3CCNCC3)c2)c(-c2cn(C)c(=O)c3[nH]c(-c4cnn(C(F)(F)F)c4)cc23)cc1=O [Example 4, 6-methyl-4-(1-methyl-2-oxo-5-(3-(piperazin-1-ylmethyl)phenyl)-1,2-dihydropyridin-4-yl)-2-(1-(trifluoromethyl)-1H-pyrazol-4-yl)-1,6-dihydro-7H-pyrrolo[2,3-c]pyridin-7-one]
IC50 [2]: > 1000 nM
IC50 [1]: > 1000 nM
Fold Selectivity BRD4 BD1/BD2 [1]: — (Fold ≥0 and ≤2)

Cn1cc(-c2cc(=O)n(C3COC3)cc2-c2ccccc2)c2cc(-c3cnn(C(F)(F)F)c3)[nH]c2c1=O [Example 5, 6-methyl-4-(1-(oxetan-3-yl)-2-oxo-5-phenyl-1,2-dihydropyridin-4-yl)-2-(1-(trifluoromethyl)-1H-pyrazol-4-yl)-1,6-dihydro-7H-pyrrolo[2,3-c]pyridin-7-one]
IC50 [2]: > 1000 nM
IC50 [1]: 10 to 50 nM
Fold Selectivity BRD4 BD1/BD2 [1]: xxx (Fold >200 and ≤1000)

Cn1cc(-c2cccc3c2COC3)c(-c2cn(C)c(=O)c3[nH]c(-c4ccc(F)cc4F)cc23)cc1=O [Example 6, 2-(2,4-difluorophenyl)-4-(5-(1,3-dihydroisobenzofuran-4-yl)-1-methyl-2-oxo-1,2-dihydropyridin-4-yl)-6-methyl-1,6-dihydro-7H-pyrrolo[2,3-c]pyridin-7-one]
IC50 [2]: > 1000 nM
IC50 [1]: < 10 nM
Fold Selectivity BRD4 BD1/BD2 [1]: xxxx (Fold >1000)

COCc1cccc(-c2cn(C)c(=O)cc2-c2cn(C)c(=O)c3[nH]c(-c4cnn(C(F)(F)F)c4)cc23)c1 [Example 7, 4-(5-(3-(methoxymethyl)phenyl)-1-methyl-2-oxo-1,2-dihydropyridin-4-yl)-6-methyl-2-(1-(trifluoromethyl)-1H-pyrazol-4-yl)-1,6-dihydro-7H-pyrrolo[2,3-c]pyridin-7-one]
IC50 [2]: > 1000 nM
IC50 [1]: < 10 nM
Fold Selectivity BRD4 BD1/BD2 [1]: xxxx (Fold >1000)

CCCCCCCCc1ccc(CCC(N)(CO)CO)cc1 [FTY720, reference compound]
Incidence of EAE (%) [3]: 16.7*** %
Mean Day of Onset (SEM) [3]: 18.5 (0.5) Day
Mean End Score (SEM) [3]: 0.21 (0.14)***
Mean Maximum Score (SEM) [3]: 0.33 (0.23)***
Median Day of Onset [3]: >28.0 days
Mean EAE score ([3]; Day 7): 0.00
Mean EAE score ([3]; Day 8): 0.00
Mean EAE score ([3]; Day 9): 0.00
Mean EAE score ([3]; Day 10): 0.00
Mean EAE score ([3]; Day 11): 0.00
Mean EAE score ([3]; Day 12): 0.00
Mean EAE score ([3]; Day 13): 0.00
Mean EAE score ([3]; Day 14): 0.00
Mean EAE score ([3]; Day 15): 0.00
Mean EAE score ([3]; Day 16): 0.00
Mean EAE score ([3]; Day 17): 0.00
Mean EAE score ([3]; Day 18): 0.13
Mean EAE score ([3]; Day 19): 0.25
Mean EAE score ([3]; Day 20): 0.25
Mean EAE score ([3]; Day 21): 0.29
Mean EAE score ([3]; Day 22): 0.33
Mean EAE score ([3]; Day 23): 0.29
Mean EAE score ([3]; Day 24): 0.29
Mean EAE score ([3]; Day 25): 0.21
Mean EAE score ([3]; Day 26): 0.21
Mean EAE score ([3]; Day 27): 0.21
Mean EAE score ([3]; Day 28): 0.21
Mean Body Weight ([4]; Day 0): 20.3 g
Mean Body Weight (% of Day −1) ([4]; Day 0): 100.7 % of Day −1
Mean Body Weight ([4]; Day 2): 19.9 g
Mean Body Weight (% of Day −1) ([4]; Day 2): 98.4 % of Day −1
Mean Body Weight ([4]; Day 5): 21.2 g
Mean Body Weight (% of Day −1) ([4]; Day 5): 105.1 % of Day −1
Mean Body Weight ([4]; Day 7): 21.3 g
Mean Body Weight (% of Day −1) ([4]; Day 7): 105.4 % of Day −1
Mean Body Weight ([4]; Day 9): 21.8 g
Mean Body Weight (% of Day −1) ([4]; Day 9): 108.2 % of Day −1
Mean Body Weight ([4]; Day 12): 21.5 g
Mean Body Weight (% of Day −1) ([4]; Day 12): 106.5 % of Day −1
Mean Body Weight ([4]; Day 14): 21.6 g
Mean Body Weight (% of Day −1) ([4]; Day 14): 107.2 % of Day −1
Mean Body Weight ([4]; Day 16): 21.6 g
Mean Body Weight (% of Day −1) ([4]; Day 16): 107.0 % of Day −1
Mean Body Weight ([4]; Day 19): 21.6 g
Mean Body Weight (% of Day −1) ([4]; Day 19): 106.9 % of Day −1
Mean Body Weight ([4]; Day 21): 21.7 g
Mean Body Weight (% of Day −1) ([4]; Day 21): 107.5 % of Day −1
Mean Body Weight ([4]; Day 23): 22.0 g
Mean Body Weight (% of Day −1) ([4]; Day 23): 109.3 % of Day −1
Mean Body Weight ([4]; Day 27): 21.9 g
Mean Body Weight (% of Day −1) ([4]; Day 27): 108.3 % of Day −1
Mean Body Weight ([4]; Day 28): 22.0 g
Mean Body Weight (% of Day −1) ([4]; Day 28): 108.9 % of Day −1
Mean Body Weight ([4]; Day −1): 20.2 g
Mean Body Weight (% of Day −1) ([4]; Day −1): 100.0 % of Day −1
Mean Body Weight Change (% of Day −1) ([4]; FTY720, mean end body weight): 108.9*** % of Day −1
